Test results as given in patent publication US10660877B2 (BRISTOL-MYERS SQUIBB COMPANY, priority 2016, dated 2020).

Columns and labels:
human TLR9 = human TLR9 (Homo sapiens (Human), UniProt Q9NR96); test: TLR9 inhibition reporter assay (HEK-Blue cells, SEAP reporter, ODN2006 stimulation); conditions: read-out: TLR9 IC50, HEK-Blue cells overexpressing human TLR9, ODN2006 5 nM;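 also: compounds tested over 0.05 nM to 50 µM, 22 h incubation, inhibition taken as SEAP signal drop from agonist plus DMSO wells toward a known inhibitor control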
human TLR8 = human TLR8 (Homo sapiens (Human), UniProt Q9NR97); test: TLR8 inhibition reporter assay (HEK-Blue cells, SEAP reporter, R848 stimulation); conditions: read-out: TLR8 IC50, HEK-Blue cells overexpressing human TLR8, R848 15.9 μM;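 also: compounds tested from 0.05 nM to 50 µM, 22 h at 37 °C, SEAP measured with HEK-Blue Detection, inhibition relative to agonist plus DMSO versus a known inhibitor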
Method: TLR7/8/9 Inhibition Reporter Assays
Briefly, cells are seeded into Greiner 384 well plates (15000 cells per well for TLR7, 20,000 for TLR8 and 25,000 for TLR9) and then treated with test compounds in DMSO to yield a final dose response concentration range of 0.05 nM-50 μM. […] After a 22 hour incubation at 37° C., 5% CO2, SEAP levels are determined with the addition of HEK-Blue™ Detection reagent (Invivogen), a cell culture medium that allows for detection of SEAP, according to manufacturer's specifications. The percent inhibition is determined as the % reduction in the HEK-Blue signal present in wells treated with agonist plus DMSO alone compared to wells treated with a known inhibitor.

human TLR7 = human TLR7 (Homo sapiens (Human), UniProt Q9NYK1); test: TLR7 inhibition reporter assay (HEK-Blue cells, SEAP reporter, gardiquimod stimulation); assay type: cell-based; conditions: HEK-Blue cells overexpressing human TLR7, gardiquimod 7.5 μM
Sequence of human TLR7 (Q9NYK1 27-1049): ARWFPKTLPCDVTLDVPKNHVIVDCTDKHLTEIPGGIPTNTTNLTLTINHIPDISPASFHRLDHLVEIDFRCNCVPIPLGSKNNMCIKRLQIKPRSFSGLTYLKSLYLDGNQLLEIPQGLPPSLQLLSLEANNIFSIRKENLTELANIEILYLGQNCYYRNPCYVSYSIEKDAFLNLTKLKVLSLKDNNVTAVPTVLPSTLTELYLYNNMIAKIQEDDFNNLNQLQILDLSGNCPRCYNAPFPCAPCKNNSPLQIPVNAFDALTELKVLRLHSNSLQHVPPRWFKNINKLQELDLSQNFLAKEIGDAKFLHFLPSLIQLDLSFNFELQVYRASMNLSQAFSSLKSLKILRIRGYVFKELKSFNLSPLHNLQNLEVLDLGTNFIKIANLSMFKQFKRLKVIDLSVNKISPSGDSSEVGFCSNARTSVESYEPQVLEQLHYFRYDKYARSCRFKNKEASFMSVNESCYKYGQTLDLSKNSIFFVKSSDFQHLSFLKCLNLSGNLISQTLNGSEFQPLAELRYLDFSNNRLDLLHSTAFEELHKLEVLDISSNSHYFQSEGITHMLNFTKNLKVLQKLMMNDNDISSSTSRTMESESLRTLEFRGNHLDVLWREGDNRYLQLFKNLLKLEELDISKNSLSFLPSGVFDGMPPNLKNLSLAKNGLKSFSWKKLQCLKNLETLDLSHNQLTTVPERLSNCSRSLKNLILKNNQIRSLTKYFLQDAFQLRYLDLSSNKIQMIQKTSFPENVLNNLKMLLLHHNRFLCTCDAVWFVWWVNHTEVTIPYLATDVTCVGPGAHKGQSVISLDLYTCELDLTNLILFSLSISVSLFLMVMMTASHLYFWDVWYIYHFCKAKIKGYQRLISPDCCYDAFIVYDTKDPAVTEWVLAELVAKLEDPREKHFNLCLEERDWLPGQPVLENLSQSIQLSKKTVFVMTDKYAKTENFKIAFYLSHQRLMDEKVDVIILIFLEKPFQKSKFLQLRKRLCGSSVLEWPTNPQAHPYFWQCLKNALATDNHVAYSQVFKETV

Sequence of human TLR9 (Q9NR96 26-1032): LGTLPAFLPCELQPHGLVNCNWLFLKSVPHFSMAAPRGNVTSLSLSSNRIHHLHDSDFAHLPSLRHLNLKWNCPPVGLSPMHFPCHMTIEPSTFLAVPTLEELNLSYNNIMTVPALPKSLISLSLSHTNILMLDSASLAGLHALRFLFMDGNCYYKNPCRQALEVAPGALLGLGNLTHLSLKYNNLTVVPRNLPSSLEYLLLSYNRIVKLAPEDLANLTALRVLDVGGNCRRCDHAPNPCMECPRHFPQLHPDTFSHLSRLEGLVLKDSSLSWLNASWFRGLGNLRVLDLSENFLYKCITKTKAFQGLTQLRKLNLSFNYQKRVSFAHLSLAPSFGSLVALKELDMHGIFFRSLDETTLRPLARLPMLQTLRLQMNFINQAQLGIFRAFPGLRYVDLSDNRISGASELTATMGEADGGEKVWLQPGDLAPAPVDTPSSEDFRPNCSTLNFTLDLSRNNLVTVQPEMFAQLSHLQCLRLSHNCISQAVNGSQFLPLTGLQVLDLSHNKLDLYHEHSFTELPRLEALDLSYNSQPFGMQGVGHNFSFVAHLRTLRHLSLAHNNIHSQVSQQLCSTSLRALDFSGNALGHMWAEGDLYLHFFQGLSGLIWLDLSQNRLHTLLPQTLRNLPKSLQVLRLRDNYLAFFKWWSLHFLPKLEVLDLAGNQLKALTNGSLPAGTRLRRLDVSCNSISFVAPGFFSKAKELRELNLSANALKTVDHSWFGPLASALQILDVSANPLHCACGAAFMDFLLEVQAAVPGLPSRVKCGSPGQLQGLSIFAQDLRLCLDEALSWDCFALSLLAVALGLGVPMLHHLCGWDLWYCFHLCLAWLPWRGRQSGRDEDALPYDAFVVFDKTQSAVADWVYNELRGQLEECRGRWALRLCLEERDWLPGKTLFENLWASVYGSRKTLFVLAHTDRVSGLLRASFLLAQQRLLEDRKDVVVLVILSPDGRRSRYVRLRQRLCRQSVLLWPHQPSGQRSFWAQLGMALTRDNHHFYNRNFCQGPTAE
Sequence of human TLR8 (Q9NR97 27-1041): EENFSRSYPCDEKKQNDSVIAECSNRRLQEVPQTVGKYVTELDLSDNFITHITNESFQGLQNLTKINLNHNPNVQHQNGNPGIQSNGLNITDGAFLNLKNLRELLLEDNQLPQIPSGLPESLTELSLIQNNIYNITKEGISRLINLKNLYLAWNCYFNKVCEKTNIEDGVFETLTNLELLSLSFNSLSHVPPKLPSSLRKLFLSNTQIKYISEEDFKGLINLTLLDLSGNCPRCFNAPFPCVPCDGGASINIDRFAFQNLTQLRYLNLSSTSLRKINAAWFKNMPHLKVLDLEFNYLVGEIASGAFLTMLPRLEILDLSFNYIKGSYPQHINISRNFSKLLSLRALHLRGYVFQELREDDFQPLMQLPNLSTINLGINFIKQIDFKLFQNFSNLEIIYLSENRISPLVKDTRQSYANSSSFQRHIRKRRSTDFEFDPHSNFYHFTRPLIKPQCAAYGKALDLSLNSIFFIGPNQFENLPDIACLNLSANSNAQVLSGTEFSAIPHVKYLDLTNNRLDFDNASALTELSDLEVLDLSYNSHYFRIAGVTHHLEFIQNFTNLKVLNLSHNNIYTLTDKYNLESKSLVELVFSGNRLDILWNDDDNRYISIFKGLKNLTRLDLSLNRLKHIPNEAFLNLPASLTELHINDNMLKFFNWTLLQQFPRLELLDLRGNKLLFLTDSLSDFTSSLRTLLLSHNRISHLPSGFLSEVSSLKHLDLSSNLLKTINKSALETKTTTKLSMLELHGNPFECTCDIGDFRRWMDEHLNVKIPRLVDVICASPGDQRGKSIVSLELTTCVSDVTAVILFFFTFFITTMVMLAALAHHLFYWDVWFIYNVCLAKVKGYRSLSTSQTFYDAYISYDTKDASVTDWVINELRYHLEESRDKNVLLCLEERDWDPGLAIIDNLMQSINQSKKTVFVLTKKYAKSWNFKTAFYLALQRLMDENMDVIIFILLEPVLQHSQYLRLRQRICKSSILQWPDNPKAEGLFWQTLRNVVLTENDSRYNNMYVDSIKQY

Row | IC50 (human TLR9) | IC50 (human TLR8) | IC50 (human TLR7) | Compound
1 | 9750 nM | 206 nM | 119 nM | Cc1cc(-c2[nH]c3ccc(C4CCN(S(=O)(=O)c5cccnc5)CC4)cc3c2C(C)C)ccn1 [Example 543, 3-isopropyl-2-(2-methylpyridin-4-yl)-5-(1-(pyridin-3-ylsulfonyl)piperidin-4-yl)-1H-indole]
2 | 12200 nM | 245 nM | 119 nM | Cc1cc(-c2[nH]c3ccc(C4CCN(S(=O)(=O)C(C)C)CC4)cc3c2C(C)C)ccn1 [Example 544, 3-isopropyl-5-(1-(isopropylsulfonyl)piperidin-4-yl)-2-(2-methylpyridin-4-yl)-1H-indole]
3 | > 50000 nM | 266 nM | 102 nM | CCCS(=O)(=O)N1CCC(c2ccc3[nH]c(-c4ccnc(C)c4)c(C(C)C)c3c2)CC1 [Example 545, 3-isopropyl-2-(2-methylpyridin-4-yl)-5-(1-(propylsulfonyl)piperidin-4-yl)-1H-indole]
4 | > 50000 nM | 820 nM | 164 nM | Cc1cc(-c2[nH]c3ccc(C4CCN(S(=O)(=O)CC(F)(F)F)CC4)cc3c2C(C)C)ccn1 [Example 546, 3-isopropyl-2-(2-methylpyridin-4-yl)-5-(1-((2,2,2-trifluoroethyl)sulfonyl)piperidin-4-yl)-1H-indole]
5 | > 50000 nM | 1040 nM | 333 nM | Cc1cc(-c2[nH]c3ccc(C4CCN(S(=O)(=O)c5ccccc5)CC4)cc3c2C(C)C)ccn1 [Example 547, 3-isopropyl-2-(2-methylpyridin-4-yl)-5-(1-(phenylsulfonyl)piperidin-4-yl)-1H-indole]
6 | > 50000 nM | 700 nM | 336 nM | Cc1cc(-c2[nH]c3ccc(C4CCN(S(=O)(=O)CC(C)C)CC4)cc3c2C(C)C)ccn1 [Example 548, 5-(1-(isobutylsulfonyl)piperidin-4-yl)-3-isopropyl-2-(2-methylpyridin-4-yl)-1H-indole]
7 | > 50000 nM | 164 nM | 55.6 nM | CCS(=O)(=O)N1CCC(c2ccc3[nH]c(-c4ccnc(C)c4)c(C(C)C)c3c2)CC1 [Example 549, 5-(1-(ethylsulfonyl)piperidin-4-yl)-3-isopropyl-2-(2-methylpyridin-4-yl)-1H-indole]
8 | > 50000 nM | 162 nM | 39 nM | Cc1cc(-c2[nH]c3ccc(C4CCN(S(C)(=O)=O)CC4)cc3c2C(C)C)ccn1 [Example 550, 3-isopropyl-2-(2-methylpyridin-4-yl)-5-(1-(methylsulfonyl)piperidin-4-yl)-1H-indole]
9 | > 50000 nM | 1030 nM | 486 nM | Cc1cc(-c2[nH]c3ccc(C4CCN(S(=O)(=O)c5ccc(F)cc5)CC4)cc3c2C(C)C)ccn1 [Example 551, 5-(1-((4-fluorophenyl)sulfonyl)piperidin-4-yl)-3-isopropyl-2-(2-methylpyridin-4-yl)-1H-indole]

Second part, the compound before the results:

Row | Compound | IC50 (human TLR9) | IC50 (human TLR8) | IC50 (human TLR7)
10 | CC(C)c1c(-c2ccnc(F)c2)[nH]c2ccc(C3CCN(C4CCN(C)CC4)CC3)cc12 [Example 523, 2-(2-fluoropyridin-4-yl)-3-isopropyl-5-(1′-methyl-[1,4′-bipiperidin]-4-yl)-1H-indole] | 503 nM | 25.5 nM | 25.8 nM
11 | CC(C)c1c(-c2ccncc2)[nH]c2ccc(C3CCN(C(=O)CN(C)C)CC3)cc12 [Example 524, 2-(dimethylamino)-1-(4-(3-isopropyl-2-(pyridin-4-yl)-1H-indol-5-yl)piperidin-1-yl) ethan-1-one] | 2800 nM | 29.2 nM | 33.6 nM
12 | CC(C)c1c(-c2ccncc2)[nH]c2ccc(C3CCN(C4CCN(C)CC4)CC3)cc12 [Example 525, 3-isopropyl-5-(1′-methyl-[1,4′-bipiperidin]-4-yl)-2-(pyridin-4-yl)-1H-indole] | 190 nM | 6 nM | 44.3 nM
13 | CCc1c(-c2cc(C)nc(C)c2)[nH]c2ccc(C3CCN(CC(=O)N(C)C)CC3)cc12 [Example 526, 2-(4-(2-(2,6-dimethylpyridin-4-yl)-3-ethyl-1H-indol-5-yl)piperidin-1-yl)-N,N-dimethylacetamide] | 102 nM | 24.7 nM | 10.5 nM
14 | CCc1c(-c2cc(C)nc(C)c2)[nH]c2ccc(C3CCN(CC(=O)NC)CC3)cc12 [Example 527, 2-(4-(2-(2,6-dimethylpyridin-4-yl)-3-ethyl-1H-indol-5-yl)piperidin-1-yl)-N-methylacetamide] | 608 nM | 63.6 nM | 54.1 nM
15 | CCc1c(-c2cc(C)nc(C)c2)[nH]c2ccc(C3CCN(C(=O)CN(C)C)CC3)cc12 [Example 528, 2-(dimethylamino)-1-(4-(2-(2,6-dimethylpyridin-4-yl)-3-ethyl-1H-indol-5-yl)piperidin-1-yl)ethan-1-one] | 150 nM | 50.9 nM | 16 nM
16 | CCc1c(-c2cc(C)nc(C)c2)[nH]c2ccc(C3CCN(C(=O)CNC)CC3)cc12 [Example 529, 1-(4-(2-(2,6-dimethylpyridin-4-yl)-3-ethyl-1H-indol-5-yl)piperidin-1-yl)-2-(methylamino)ethan-1-one] | 119 nM | 28.2 nM | 6.6 nM
17 | CCc1c(-c2cc(C)nc(C)c2)[nH]c2ccc(C3CCN(C(=O)C4CC(=O)N(C)C4)CC3)cc12 (stereo not drawn) [Example 530, 4-(4-(2-(2,6-dimethylpyridin-4-yl)-3-ethyl-1H-indol-5-yl)piperidine-1-carbonyl)-1-methylpyrrolidin-2-one] | 5270 nM | 398 nM | 52.2 nM
18 | Cc1cc(-c2[nH]c3ccc(C4CCN(CC(=O)N(C)C)CC4)cc3c2CC(F)F)cc(C)n1 [Example 531, 2-(4-(3-(2,2-difluoroethyl)-2-(2,6-dimethylpyridin-4-yl)-1H-indol-5-yl)piperidin-1-yl)-N,N-dimethylacetamide] | 221 nM | 63.9 nM | 15.7 nM
19 | CNC(=O)CN1CCC(c2ccc3[nH]c(-c4cc(C)nc(C)c4)c(CC(F)F)c3c2)CC1 [Example 532, 2-(4-(3-(2,2-difluoroethyl)-2-(2,6-dimethylpyridin-4-yl)-1H-indol-5-yl)piperidin-1-yl)-N-methylacetamide] | 813 nM | 81.8 nM | 17.4 nM
20 | Cc1cc(-c2[nH]c3ccc(C4CCN(C(=O)CN(C)C)CC4)cc3c2CC(F)F)cc(C)n1 [Example 533, 1-(4-(3-(2,2-difluoroethyl)-2-(2,6-dimethylpyridin-4-yl)-1H-indol-5-yl)piperidin-1-yl)-2-(dimethylamino)ethan-1-one] | 1480 nM | 285 nM | 77.8 nM
21 | Cc1cc(-c2[nH]c3ccc(C4CCN(C(=O)C5CC(=O)N(C)C5)CC4)cc3c2CC(F)F)cc(C)n1 (stereo not drawn) [Example 534, 4-(4-(3-(2,2-difluoroethyl)-2-(2,6-dimethylpyridin-4-yl)-1H-indol-5-yl)piperidine-1-carbonyl)-1-methylpyrrolidin-2-one] | 45400 nM | 660 nM | 63.8 nM
22 | CNCC(=O)N1CCC(c2ccc3[nH]c(-c4cc(C)nc(C)c4)c(CC(F)F)c3c2)CC1 [Example 535, 1-(4-(3-(2,2-difluoroethyl)-2-(2,6-dimethylpyridin-4-yl)-1H-indol-5-yl)piperidin-1-yl)-2-(methylamino)ethan-1-one] | 258 nM | 86.5 nM | 10 nM
23 | Cc1cc(-c2[nH]c3ccc(C4CCN(C(C)C)CC4)cc3c2CC(F)F)cc(C)n1 [Example 536, 3-(2,2-difluoroethyl)-2-(2,6-dimethylpyridin-4-yl)-5-(1-isopropylpiperidin-4-yl)-1H-indole] | 123 nM | 20.3 nM | 12.1 nM
24 | Cc1cc(-c2[nH]c3ccc(C4CCN(Cc5c[nH]cn5)CC4)cc3c2CC(F)F)cc(C)n1 [Example 537, 5-(1-((1H-imidazol-4-yl)methyl)piperidin-4-yl)-3-(2,2-difluoroethyl)-2-(2,6-dimethylpyridin-4-yl)-1H-indole] | 32 nM | 53.3 nM | 36.2 nM
25 | Cc1cc(-c2[nH]c3ccc(C4CCN(Cc5c[nH]c(C)n5)CC4)cc3c2CC(F)F)cc(C)n1 [Example 538, 3-(2,2-difluoroethyl)-2-(2,6-dimethylpyridin-4-yl)-5-(1-((2-methyl-1H-imidazol-4-yl)methyl)piperidin-4-yl)-1H-indole] | 69 nM | 34.6 nM | 39.6 nM
26 | Cc1cc(-c2[nH]c3ccc(C4CCN(C)CC4)cc3c2CC(F)F)cc(C)n1 [Example 539, 3-(2,2-difluoroethyl)-2-(2,6-dimethylpyridin-4-yl)-5-(1-methylpiperidin-4-yl)-1H-indole] | 4820 nM | 81.2 nM | 23.3 nM
27 | Cc1cc(-c2[nH]c3ccc(C4CCN(C5CCN(C(C)C)CC5)CC4)cc3c2CC(F)F)cc(C)n1 [Example 540, 3-(2,2-difluoroethyl)-2-(2,6-dimethylpyridin-4-yl)-5-(1′-isopropyl-[1,4′-bipiperidin]-4-yl)-1H-indole] | 131 nM | 25.6 nM | 11.8 nM
28 | CNCCN1CCC(c2ccc3[nH]c(-c4cc(C)nc(C)c4)c(CC(F)F)c3c2)CC1 [Example 541, 2-(4-(3-(2,2-difluoroethyl)-2-(2,6-dimethylpyridin-4-yl)-1H-indol-5-yl)piperidin-1-yl)-N-methylethan-1-amine] | 110 nM | 22.2 nM | 11.5 nM
29 | Cc1cc(-c2[nH]c3ccc(C4CCN(S(=O)(=O)c5ccc(Cl)cc5)CC4)cc3c2C(C)C)ccn1 [Example 542, 5-(1-((4-chlorophenyl)sulfonyl)piperidin-4-yl)-3-isopropyl-2-(2-methylpyridin-4-yl)-1H-indole] | > 50000 nM | 1480 nM | 1160 nM
